In ChEMBL document CHEMBL5033994, “Fragment-Based Optimization of Dihydropyrazino-Benzimidazolones as Metabotropic Glutamate Receptor-2 Positive Allosteric Modulators against Migraine” (J Med Chem, 2021):
Converted amounts (≈) assume the structure as drawn.

Columns and labels:
in vivo [1] = conditions: Wistar, rat, po, 10 mg/kg
in vivo [2] = conditions: Wistar, rat, po, 10 mg/kg; remark: listed apart in the source
in vivo [3] = conditions: Wistar, rat, iv, 3 mg/kg
in vivo [4] = conditions: Wistar, rat, po, 10 mg/kg; remark: listed apart in the source
in vivo [5] = conditions: Wistar, rat, iv, 3 mg/kg; remark: listed apart in the source
in vivo [6] = conditions: Wistar, rat, po, 10 mg/kg; remark: listed apart in the source
in vivo [7] = conditions: Wistar, rat, iv, 3 mg/kg; remark: listed apart in the source
physchem [8] = conditions: buffer, pH 7.4
in vivo [9] = conditions: Wistar, rat, brain/plasma, po, 10 mg/kg
in vivo [10] = conditions: Wistar, rat, po, 10 mg/kg; remark: listed apart in the source
physchem [11] = conditions: buffer, pH 7.4; remark: listed apart in the source

AUC(0-t) at 5 h (in vivo [1]): 1820 ng·h/mL
bioavailability (in vivo [2]): 67%
clearance (in vivo [3]): 60 mL/min/kg
Tmax (in vivo [4]): 30 min
AUC(0-t) at 2 h (in vivo [5]): 833 ng·h/mL
half-life (in vivo [6]): 54.6 min
half-life (in vivo [7]): 15.6 min
logD (physchem [8]): 3.09
Kp (in vivo [9]): 1.02
Cmax (in vivo [10]): 1360 ng/mL
solubility (physchem [11]): 43 µg/mL (≈ 133 µM)
Compound: O=C1c2nc3cccc(C(F)(F)F)c3n2CCN1CC1CCC1
